From patent publication EP4282435A1, “FORMULATIONS OF ACTIVE PHARMACEUTICAL INGREDIENTS AND EXCIPIENTS IN ICELLS VIA HYDROPHOBIC ION PAIRING” (Danmarks Tekniske Universitet, priority 2022, dated 2023)
Like-named read-outs stand apart in the source and are kept apart here.

Assays:
[1] = HIP complexation of SIINFEKL with SDS (HPLC of supernatant); type: physicochemical
Experimental: (1.5 mg/mL) was dissolved in 0.01 M HCI. […] The […] and co-ion solution were mixed in equal volumes, followed by shaking and centrifugation steps as described in method 1 of example 2. The supernatant was removed the content of […] was evaluated by HPLC.
HPLC method: Samples were analyzed on a Shimadzu Nexera-X with PDA. Samples were injected (40 µL) onto a Waters Terra XBridge BEH C8 column (2.5 µm, 4.6x150mm, temperature 25 °C) at a flow rate of 1 mL/min. The solvent system consisted of mobile phase A (5% MeCN, 0.1% TFA in water) and mobile phase B (0.1% TFA in MeCN). The gradient was 0% B for 1.5 min, 0 to 100% B in 7 min, 100% B for 1.5 min, 100% B to 0% B in 0.5 min, 0% B for 1.5 min. […] was quantified by UV at 220 nm.

[2] = HIP complexation efficacy of clindamycin (UHPLC of organic phase); type: physicochemical; details: percentage of clindamycin complexed with the named co-ion, 1:1 charge ratio
Experimental: HIP complexation via Bligh-Dyer method: […] Moreover, chloroform and methanol were mixed before the addition of the aqueous clindamycin solution. […] The dried complex was re-suspended in methanol and analyzed by UHPLC to determine the amount of clindamycin. HIP complexation via modified Bligh-Dyer method: […] Next, 4 mL of chloroform were added and the resulting monophase was shaken at 400 rpm at room temperature for 30 min. 4 mL of chloroform followed by 4 mL of water were added to form a biphasic system. Isolation and analysis of the dried complex was done as described beforehand for the Bligh-Dyer method. UHPLC method: Samples were analyzed on a Shimadzu Nexera-X with a PDA detector. Samples were injected (5 μL) onto a Waters Terra XBridge BEH C8 column (2.5 μm, 4.6x75mm, temperature 25 °C) at a flow rate of 1 mL/min.

[3] = Excerpt: The chloroform phase was isolated, transferred to a new vial and subsequently chloroform was dried under a gentle flow of nitrogen.
[4] = HIP complexation of ICG by method 3 (Bligh-Dyer), judged by colour of the phases; type: physicochemical; details: co-ion:ICG 1:1 molar ratio
Experimental: HIP method 3 (Bligh-Dyer method): ICG (5 mg/mL) was dissolved in a 0.01 M HCI solution. Benethamine, dodecylamine, CTAB and tetraethyl ammonium bromide were used as co-ions. Each co-ion was dissolved in methanol in a 1:1 molar ratio to ICG. In an 8-mL glass vial, 1 mL of chloroform, 2 mL of co-ion solution (methanol), and 1 mL of ICG solution (water) were added in that order (methanol without co-ions was used as a control). The vials was gently shaken (i.e., slowly turned over 2-3 times) and incubated for 45 min at room temperature in the dark. Then 1 mL of water was added followed by 1 mL of chloroform. The vial was gently shaken again and incubated for 45 min at room temperature in the dark. The resulting HIP complex is present in the lower organic phase.
DB36 and ICG are negatively charged molecules, which are very soluble in water, but not in organic solvents such as chloroform. All the used co-ions have a positive charge and they could form hydrophobic ion pairing (HIP) complexes with either DB36 or ICG. When solubilized, DB36 and ICG form dark blue or green solutions, respectively. Thus, successful HIP complexation was assessed by either observing precipitates (for method 1) or a change in coloration in the chloroform phase (for methods 2 and 3). […]

[5] = Solubility of ICG HIP complexes in ICell (visual)
Experimental: (§1) For each co-ion, the chloroform phase was isolated and transferred to new glass vials. Chloroform was dried under a gentle flow of nitrogen.
(§2) 1 g of ICell was added to each vial containing the previously isolated ICG HIP complexes. In addition, 1 g of ICell was added to a vial containing 2.5 mg of native ICG.

[6] = Stability of ICG HIP complexes in ICell (HPLC); type: physicochemical; details: ICG complexed with the named co-ion in SuBen:GTO:EtOH (60:25:15) ICell, 7 weeks in the dark at room temperature, percentage AUC of ICG at 280 nm
Experimental: as §1, §2
Stability study: After preparation, ICells were stored at room temperature and protected from light. After 7 weeks, approximately 25 µL of each formulation were taken and dissolved in 500 µL of acetonitrile. The samples were then analyzed by HPLC. HPLC analysis: Samples were analyzed on a Shimadzu Nexera-X HPLC. Samples were injected (5 µL) onto a Waters Terra XBridge BEH C18 column (2.5 µm, 4.6x75mm, temperature 25 °C) at a flow rate of 1 mL/min. The solvent system consisted of mobile phase A (5% MeCN, 0.1% TFA in water) and mobile phase B (0.1% TFA in MeCN). The gradient was 0% B for 1 min, 0 to 100% B in 5 min, 100% B for 4 min, 100% B to 0% B in 0.5 min, 0% B for 1 min. UV detection at 280 nm was used to measure the AUC of ICG and its related degradation products.

S. aureus strain S54F9 = experiment: Microbiological assay, Disc Diffusion Assay; type: cell-based, Staphylococcus aureus; details: 24 hours at 37 °C
Experimental: Then, 3 wells were carved out with the use of the broad side of an autoclaved 1 ml pipette tip.
This setup was repeated for three experimental replicates. Each plate was incubated for 24 hours at 37 °C, before inspection.
Then, 3 wells were carved out with the use of the broad side of an autoclaved 1 ml pipette tip. In one well, 0.5 mg linoleic acid was injected as 90 µl 0.22 µm-sterile-filtered dimethyl sulfoxide. In a second well, 90 µl autoclaved phosphate-buffered saline with 0.5 mg vancomycin hydrochloride was injected. […] The plate was incubated for 24 hours at 37 °C, before inspection.

[7] = In vitro release of clindamycin-HIP complexes from ICell into PBS; type: in vitro ADME; details: clindamycin or its HIP complex with the named co-ion, SuBen:GTH:EtOH (60:20:20) ICell, 20 mg/g, PBS 37°C, after 8 days, mean (n=2)
Experimental: ICell formulation: […] […] In vitro release: 50 μL of each ICell were individually injected in 8-mL glass vials containing 2 mL PBS, for which the exact amount of injected ICell was weighed. The vials were incubated at 37 °C and at each sampling point 1 mL of PBS was taken. 1 mL of fresh buffer was added immediately to the vial to replace the taken sample. The samples were then analyzed by HPLC and the concentration of drug in the release media was calculated. UHPLC method: HPLC analyses were done using a Shimadzu Nexera-X UHPLC instrument with a PDA detector. The samples were injected (40 μL) onto a Waters Terra BEH C8 column (2.5μm, 4.6x75mm, temperature 25°C) at a flow rate of 0.8 mL/min.

[8] = Effect of co-ions on surface tension of ICell (visual appearance of injected depots); type: physicochemical; details: co-ion alone (2 mM or 10 mM, no ICG) in SuBen:GTH:DMSO or SuBen:GTO:EtOH ICell, in PBS, 7 days at 37°C
Experimental: ICell formulation: A SuBen:GTH:DMSO (60:20:20), SuBen:GTH:DMSO (60:20:15) and a SuBen:GTO:EtOH (60:25:10) ICell were prepared as described in example 4. Effect on surface tension without ICG: TOAB was dissolved in DMSO and EtOH to produce solutions with a concentration of […]. CTAB was dissolved in EtOH to produce solutions with a concentration of […]. 0.03 g of each co-ion solution were individually added to 0.57 g of either a SuBen:GTH:DMSO (60:20:15) or a SuBen:GTO:EtOH (60:25:10) ICell. Thus, the final co-ion concentration in each ICell was 2mM or 10 mM. 50 µL of the previously prepared ICells were injected in glass vials containing 2 mL PBS. The vials were incubated at 37°C during 7 days and the visual appearance of the injected depots was evaluated.
(§3) Chloroform was dried under a gentle flow of nitrogen.
Effect on surface tension with ICG: SuBen:GTH:DMSO (60:20:20) ICell was proportionally added to the previously isolated ICG HIP complexes to obtain formulations with a final ICG concentration of either 0.1 or 2.5 mg/g as described in Table 4. 50 µL of these ICells were injected in glass vials containing 2 mL PBS. The vials were incubated at 37°C during 3 days and the visual appearance of the injected depots was evaluated.

[9] = HIP complexation of gentamicin (HPLC-ELSD of supernatant or aqueous phase); type: physicochemical; details: Bligh-Dyer method, 1:1 charge ratio; gentamicin not detected in aqueous phase
Experimental: HIP complexation via organic-solvent free method: […] A white precipitate was obtained, which corresponded to the HIP complex. The supernatant was removed and its gentamicin content was evaluated by HPLC. […] A sample of the aqueous phase was taken to evaluate its gentamicin content by HPLC. HPLC method: Samples were analyzed on a Shimadzu Nexera-i with an evaporative light scattering detector (ELSD). Samples were injected (5 µL) onto a Waters Terra XBridge BEH C8 column (5 µm, 4.6x150mm, temperature 25 °C) at a flow rate of 1 mL/min.

[10] = remark: listed apart in the source
Experimental: After removing the supernatant, the complex was dissolved in methanol, transferred to a new glass vial and the solvent was dried under a gentle nitrogen flow. […] The chloroform phase was isolated, transferred to a new vial and subsequently chloroform was dried under a gentle flow of nitrogen.

[11] = Solubility and stability of ICG HIP complex in different solvents (HPLC); type: physicochemical; details: native non-complexed ICG in water, 5 days at 25°C in the dark, HPLC 280 nm
Experimental: as §3
HPLC analysis: Samples were analyzed on a Shimadzu Nexera-X HPLC. […] The solvent system consisted of mobile phase A (5% MeCN, 0.1% TFA in water) and mobile phase B (0.1% TFA in MeCN). The gradient was 0% B for 1 min, 0 to 100% B in 5 min, 100% B for 4 min, 100% B to 0% B in 0.5 min, 0% B for 1 min. UV detection at 280 nm was used to measure the AUC of ICG and its related degradation products.

[12] = ICG or its HIP complex with the named co-ion in SuBen:GTO:EtOH (60:25:15) ICell, about 2.5 mg ICG per 1 g ICell, visual

Compound: CC[C@H](C)[C@H](NC(=O)[C@@H](NC(=O)[C@@H](N)CO)[C@@H](C)CC)C(=O)N[C@@H](CC(N)=O)C(=O)N[C@@H](Cc1ccccc1)C(=O)N[C@@H](CCC(=O)O)C(=O)N[C@@H](CCCCN)C(=O)N[C@@H](CC(C)C)C(=O)O [HIP complex of SIINFEKL with SDS]
- solubility in methanol [1]: soluble

Compound: CCCCCCC/C=C\C(=O)O [C2DA]
- Complexation efficacy Bligh-Dyer method [2]: 80%
- Complexation efficacy Modified Bligh-Dyer method [2]: 72%
- solubility in ICell ([3]; clindamycin or its HIP complex with the named co-ion, SuBen:GTH:EtOH (60:20:20) ICell, clindamycin 20 mg/g, visual): easily solubilized

Compound: CCCCCCCCCCCCN [Dodecylamine]
- ICG complexed [4]: ~100%
- solubility in ICell [5]: easily solubilized
- ICG % AUC [6]: 95.3%

Compound: CCCCC/C=C\C/C=C\CCCCCCCC(=O)O [Linoleic acid]
- Complexation efficacy Bligh-Dyer method [2]: 64%
- Complexation efficacy Modified Bligh-Dyer method [2]: 80%
- solubility in ICell [3]: easily solubilized
- antimicrobial activity (clearance of S. aureus) (S. aureus strain S54F9; Example 24, wells: 0.5 mg linoleic acid in DMSO, 0.5 mg vancomycin hydrochloride, 45 µl HIP complex + 45 µl PBS): has an antimicrobial effect, but to an extent lesser than vancomycin

Compound: CCCCCCCC/C=C\CCCCCCCC(=O)[O-].[Na+] [Sodium oleate]
- Complexation efficacy Bligh-Dyer method [2]: 72%
- Complexation efficacy Modified Bligh-Dyer method [2]: 72%
- release of clindamycin from the ICell [7]: 96%

Compound: CCCCCCCCCCCCCCCC[N+](C)(C)C [CTAB]
- ICG complexed [4]: ~100%
- solubility in ICell [5, 12]: easily solubilized
- ICG % AUC [6]: 97.6%
- visual appearance of injected ICell depots (surface tension) [8]: had flatten

Compound: CCCCC(CC)COC(=O)CC(C(=O)OCC(CC)CCCC)S(=O)(=O)O (stereo not shown) [Sodium docusate]
- gentamicin complexed [9]: 100%
- solubility in ICell [10]: easily solubilized

Compound: CC(=O)NC[C@H]1CN(c2ccc(N3CCOCC3)c(F)c2)C(=O)O1 [linezolid, Linezolid]
- antimicrobial activity (clearing zone) after release from ICell (S. aureus strain S54F9; Example 23, 50 µl ICell per well (gentamicin-docusate 20 mg/g, Linezolid 15 mg/g in SuBen:GTO:EtOH (60:25:15))): clearing zone

Compound: CC[N+](CC)(CC)CC.[Br-] [Tetraethyl ammonium bromide]
- ICG % AUC [6]: 96.3%

Compound: CC1(C)C(/C=C/C=C/C=C/C=C2\N(CCCCS(=O)(=O)O)c3ccc4ccccc4c3C2(C)C)=[N+](CCCCS(=O)(=O)[O-])c2ccc3ccccc3c21 [ICG, indocyanine green, reference compound]
- solubility in ICell [5, 12]: not soluble
- stability [11]: no longer visible in the chromatogram

Compound: CC[C@H](C)[C@H](NC(=O)[C@@H](NC(=O)[C@@H](N)CO)[C@@H](C)CC)C(=O)N[C@@H](CC(N)=O)C(=O)N[C@@H](Cc1ccccc1)C(=O)N[C@@H](CCC(=O)O)C(=O)N[C@@H](CCCCN)C(=O)N[C@@H](CC(C)C)C(=O)O [SIINFEKL] [reference compound]
- solubility in methanol [1]: insoluble
